Results as given in ChEMBL document CHEMBL1131971, “Identification and initial structure-activity relationships of a novel non-peptide quinolone GnRH receptor antagonist” (Bioorg Med Chem Lett, 1999).

Molecular target: T1, Gonadotropin-releasing hormone receptor (Rattus norvegicus, UniProt P30969)
T1 sequence (P30969 whole entry): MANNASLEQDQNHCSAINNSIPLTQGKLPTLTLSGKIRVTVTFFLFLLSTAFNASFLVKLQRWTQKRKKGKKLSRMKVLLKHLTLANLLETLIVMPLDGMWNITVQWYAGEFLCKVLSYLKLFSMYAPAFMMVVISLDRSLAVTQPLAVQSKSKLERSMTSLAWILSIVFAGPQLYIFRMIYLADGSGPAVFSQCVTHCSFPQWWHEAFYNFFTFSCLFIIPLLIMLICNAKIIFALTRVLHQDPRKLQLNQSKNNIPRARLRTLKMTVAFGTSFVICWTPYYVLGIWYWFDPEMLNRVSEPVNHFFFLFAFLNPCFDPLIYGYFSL
Assay: Inhibition of [125I]buserelin to GnRH receptor in rat pituitary membranes.
Format: cell membranes, Membrane
Conditions: not given

IC50 [µM]	SMILES
0.1	Cc1cc(C)cc(-c2c(OCCC3CCCCN3C)c3ccc(C(F)(F)F)cc3[nH]c2=O)c1 (stereo not drawn)
7.5	Cc1cc(C)cc(-c2c(OCCCN3CCCCC3)c3ccc(Cl)cc3[nH]c2=O)c1
0.3	Cc1cc(C)cc(-c2c(O)nc3cc(Cl)ccc3c2OC2CCCN(C)CC2)c1 (stereo not drawn)
4	CN1CCCC(COc2c(-c3ccccc3)c(O)nc3cc(Cl)ccc23)C1 (stereo not drawn)
0.5	Cc1cc(C)cc(-c2c(O)nc3cc(Cl)ccc3c2OCC2CCN(C)C2)c1 (stereo not drawn)
0.15	Cc1cc(C)cc(-c2c(OCCC3CCCCN3C)c3ccc(Br)cc3[nH]c2=O)c1 (stereo not drawn)
6.3	Cc1cc(C)cc(-c2c(O)nc3cc(Cl)ccc3c2OCC(C)CN(C)C)c1 (stereo not drawn)
0.2	Cc1cc(C)cc(-c2c(OCCC3CCCCN3C)c3ccc(Cl)cc3[nH]c2=O)c1 (stereo not drawn)
1.3	Cc1cc(C)cc(-c2c(OC3CCN(C)CC3)c3ccc(Cl)cc3[nH]c2=O)c1
0.3	Cc1cc(C)cc(-c2c(OCC3CCCN(C)C3)c3ccc(Cl)cc3[nH]c2=O)c1 (stereo not drawn)
7	CN1CCCCC(Oc2c(-c3ccccc3)c(O)nc3cc(Cl)ccc23)C1 (stereo not drawn)
0.5	Cc1cc(C)cc(-c2c(O)nc3cc(Cl)ccc3c2OCC2CCCNC2)c1 (stereo not drawn)
9	CN(C)CCCOc1c(-c2ccccc2)c(O)nc2cc(Cl)ccc12
0.2	Cc1cc(C)cc(-c2c(O)nc3cc(Cl)ccc3c2OCCC2CCCN2C)c1 (stereo not drawn)
0.032	Cc1cc(C)cc(-c2c(OCCC3CCCCN3C)c3cc([N+](=O)[O-])c(Cl)cc3[nH]c2=O)c1 (stereo not drawn)
10	Oc1nc2cc(Cl)ccc2c(OCc2ccccn2)c1-c1ccccc1
1.4	Cc1cc(C)cc(-c2c(O)nc3cc([N+](=O)[O-])ccc3c2OCC2CCCN(C)C2)c1 (stereo not drawn)
3.9	Cc1cc(C)cc(-c2c(OCC3CCCN(C)C3)c3ccc(C)cc3[nH]c2=O)c1 (stereo not drawn)
1.4	Cc1cc(C)cc(-c2c(O)nc3cc(Cl)ccc3c2OCC2CN(C)CCO2)c1 (stereo not drawn)
4	Cc1cc(C)cc(-c2c(O)nc3cc(Cl)ccc3c2OCC2CCCCN2C)c1 (stereo not drawn)
9	CN1CCCCC1COc1c(-c2ccccc2)c(=O)[nH]c2cc(Cl)ccc12 (stereo not drawn)
1.3	Cc1cc(C)cc(-c2c(O)nc3cc(Cl)ccc3c2OCC2CCCCN(C)C2)c1 (stereo not drawn)

Molecular target: T2, Gonadotropin-releasing hormone receptor (Rattus norvegicus) (UniProt P30969)
T2 sequence (whole entry): T1 sequence (P30969 whole entry)
Assay: Inhibitory activity at GnRH receptor in rat pituitary membranes.
Format: cell membranes
Set-up: concentration or dose not given beside the values
Conditions: concentration not given here

inhibition [%]	SMILES
< 50	Cc1cc(C)cc(-c2c(O)nc3c(Cl)cccc3c2OCC2CCCN(C)C2)c1 (stereo not drawn)
< 50	Cc1cc(C)cc(-c2c(O)nc3cccc(Cl)c3c2OCC2CCCN(C)C2)c1 (stereo not drawn)
< 50	COc1ccc2nc(O)c(-c3cc(C)cc(C)c3)c(OCC3CCCN(C)C3)c2c1 (stereo not drawn)
< 50	O=C1c2ccccc2C(=O)N1CCCOc1c(-c2ccccc2)c(O)nc2cc(Cl)ccc12
< 50	Oc1nc2cc(Cl)ccc2c(OCc2ccccc2)c1-c1ccccc1
< 50	Cc1cc(C)cc(-c2c(O)nc3ccc(C)cc3c2OCC2CCCN(C)C2)c1 (stereo not drawn)
< 50	COC(=O)c1ccc2c(OCC3CCCN(C)C3)c(-c3cc(C)cc(C)c3)c(O)nc2c1 (stereo not drawn)
< 50	Oc1nc2cc(Cl)ccc2c(OCc2cccnc2)c1-c1ccccc1
< 50	NCCCOc1c(-c2ccccc2)c(O)nc2cc(Cl)ccc12
< 50	Cc1cc(C)cc(-c2c(O)nc3cc(F)ccc3c2OCC2CCCN(C)C2)c1 (stereo not drawn)
< 50	Cc1cc(C)cc(-c2c(O)nc3ccc([N+](=O)[O-])cc3c2OCC2CCCN(C)C2)c1 (stereo not drawn)
< 50	Cc1cc(C)cc(-c2c(O)nc3cc(Cl)ccc3c2OCC2CCNCC2)c1
< 50	CN(C)CCOc1c(-c2ccccc2)c(O)nc2cc(Cl)ccc12
< 50	Oc1nc2cc(Cl)ccc2c(OCc2ccncc2)c1-c1ccccc1
< 50	Cc1cc(C)cc(-c2c(O)nc3ccc(Cl)cc3c2OCC2CCCN(C)C2)c1 (stereo not drawn)
< 50	Oc1nc2cc(Cl)ccc2c(OCc2ccc3ccccc3n2)c1-c1ccccc1
